In test [1] the target is T1, hERG (hKv11.1) (Homo sapiens, UniProt Q12809).
T1 construct: gene KCNH2; human KCNH2 stably expressed in HEK293 cells
Put plainly: automated patch clamp of I Kr in hERG-HEK293 cells; independently verified in hERG-CHO ([…] at […]). It is filed as cell-based. In general terms: Patch clamp records ionic current or voltage across a cell membrane.

The target of test [2] is T2, hCav1.2 (L-type calcium channel, LTCC) (Homo sapiens, UniProt Q13936).
T2 construct: gene CACNA1C; hCav1.2/β2/α2δ1 channel stably expressed in CHO cells; with CACNB2 (β2) and CACNA2D1 (α2δ1) subunits
T2 sequence (Q13936 whole entry): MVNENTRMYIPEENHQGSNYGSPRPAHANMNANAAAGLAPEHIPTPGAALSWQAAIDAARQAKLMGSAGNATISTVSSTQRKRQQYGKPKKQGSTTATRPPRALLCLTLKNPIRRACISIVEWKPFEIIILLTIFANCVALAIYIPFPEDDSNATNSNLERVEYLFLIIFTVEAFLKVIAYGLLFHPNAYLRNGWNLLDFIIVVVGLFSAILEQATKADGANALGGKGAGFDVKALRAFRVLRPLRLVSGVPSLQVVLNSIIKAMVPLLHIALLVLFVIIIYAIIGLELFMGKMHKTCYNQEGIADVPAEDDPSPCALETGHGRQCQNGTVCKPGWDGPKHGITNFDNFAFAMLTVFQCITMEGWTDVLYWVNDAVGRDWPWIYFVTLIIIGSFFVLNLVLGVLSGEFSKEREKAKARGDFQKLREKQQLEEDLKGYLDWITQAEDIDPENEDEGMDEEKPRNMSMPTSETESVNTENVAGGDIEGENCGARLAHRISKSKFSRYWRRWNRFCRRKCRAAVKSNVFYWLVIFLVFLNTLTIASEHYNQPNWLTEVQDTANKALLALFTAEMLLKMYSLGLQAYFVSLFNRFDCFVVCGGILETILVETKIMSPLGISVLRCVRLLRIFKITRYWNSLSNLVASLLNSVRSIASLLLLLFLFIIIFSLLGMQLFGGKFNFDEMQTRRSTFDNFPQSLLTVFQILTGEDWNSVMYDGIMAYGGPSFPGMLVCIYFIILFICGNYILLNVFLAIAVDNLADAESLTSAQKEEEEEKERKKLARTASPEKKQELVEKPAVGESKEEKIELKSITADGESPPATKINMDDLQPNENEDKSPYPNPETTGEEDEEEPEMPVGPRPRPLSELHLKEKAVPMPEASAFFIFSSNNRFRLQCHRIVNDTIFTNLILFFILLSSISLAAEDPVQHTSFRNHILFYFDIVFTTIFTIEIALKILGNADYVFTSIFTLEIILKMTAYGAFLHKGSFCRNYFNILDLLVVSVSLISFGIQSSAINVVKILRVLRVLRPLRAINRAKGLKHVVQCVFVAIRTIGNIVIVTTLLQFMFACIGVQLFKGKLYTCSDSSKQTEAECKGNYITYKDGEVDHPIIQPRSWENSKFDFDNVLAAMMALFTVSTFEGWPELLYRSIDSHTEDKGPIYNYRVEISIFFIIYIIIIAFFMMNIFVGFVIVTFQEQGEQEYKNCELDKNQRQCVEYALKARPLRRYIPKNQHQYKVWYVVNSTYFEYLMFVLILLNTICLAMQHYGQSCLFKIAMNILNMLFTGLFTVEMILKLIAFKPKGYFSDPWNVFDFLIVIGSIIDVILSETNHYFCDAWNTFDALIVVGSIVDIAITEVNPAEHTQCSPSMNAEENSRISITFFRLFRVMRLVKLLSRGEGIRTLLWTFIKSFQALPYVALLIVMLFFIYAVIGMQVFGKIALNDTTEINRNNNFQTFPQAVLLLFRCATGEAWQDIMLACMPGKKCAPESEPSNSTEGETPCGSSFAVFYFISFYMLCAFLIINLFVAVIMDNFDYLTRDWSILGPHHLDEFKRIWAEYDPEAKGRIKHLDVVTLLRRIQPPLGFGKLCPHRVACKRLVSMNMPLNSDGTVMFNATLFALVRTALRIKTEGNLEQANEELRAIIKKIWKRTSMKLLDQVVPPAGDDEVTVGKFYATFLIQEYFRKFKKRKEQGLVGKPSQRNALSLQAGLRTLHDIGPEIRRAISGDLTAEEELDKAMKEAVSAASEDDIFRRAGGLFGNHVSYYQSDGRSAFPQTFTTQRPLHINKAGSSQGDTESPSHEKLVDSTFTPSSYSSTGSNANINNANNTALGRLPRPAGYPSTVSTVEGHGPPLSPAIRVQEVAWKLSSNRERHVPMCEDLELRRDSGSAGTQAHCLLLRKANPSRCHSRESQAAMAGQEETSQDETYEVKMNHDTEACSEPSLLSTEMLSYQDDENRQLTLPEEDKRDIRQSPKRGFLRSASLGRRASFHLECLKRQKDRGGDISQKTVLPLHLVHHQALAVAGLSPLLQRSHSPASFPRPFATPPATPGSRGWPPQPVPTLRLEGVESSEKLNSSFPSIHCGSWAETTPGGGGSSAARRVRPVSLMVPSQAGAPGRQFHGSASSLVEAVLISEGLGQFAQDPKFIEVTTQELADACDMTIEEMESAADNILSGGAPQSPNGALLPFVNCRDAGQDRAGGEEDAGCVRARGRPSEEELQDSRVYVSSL
T2 sequence (Q08289 whole entry partner): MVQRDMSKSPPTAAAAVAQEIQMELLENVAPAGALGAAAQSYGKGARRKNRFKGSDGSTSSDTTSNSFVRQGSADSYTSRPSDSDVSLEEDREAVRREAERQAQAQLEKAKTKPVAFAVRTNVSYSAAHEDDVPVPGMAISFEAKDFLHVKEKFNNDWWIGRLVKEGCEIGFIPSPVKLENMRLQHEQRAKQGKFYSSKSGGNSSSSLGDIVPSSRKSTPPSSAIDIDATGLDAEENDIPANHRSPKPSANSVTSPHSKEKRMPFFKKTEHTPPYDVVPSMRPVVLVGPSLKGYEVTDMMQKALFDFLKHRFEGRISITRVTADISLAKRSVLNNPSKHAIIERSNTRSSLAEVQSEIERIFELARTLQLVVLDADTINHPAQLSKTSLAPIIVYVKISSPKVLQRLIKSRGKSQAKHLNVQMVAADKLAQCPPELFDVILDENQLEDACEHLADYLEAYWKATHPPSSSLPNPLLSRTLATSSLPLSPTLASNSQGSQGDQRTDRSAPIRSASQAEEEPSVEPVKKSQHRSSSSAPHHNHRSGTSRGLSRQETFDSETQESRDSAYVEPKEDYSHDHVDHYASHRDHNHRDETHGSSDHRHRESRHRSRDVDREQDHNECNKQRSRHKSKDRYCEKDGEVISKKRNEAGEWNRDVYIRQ
T2 sequence (P54289 25-956 partner): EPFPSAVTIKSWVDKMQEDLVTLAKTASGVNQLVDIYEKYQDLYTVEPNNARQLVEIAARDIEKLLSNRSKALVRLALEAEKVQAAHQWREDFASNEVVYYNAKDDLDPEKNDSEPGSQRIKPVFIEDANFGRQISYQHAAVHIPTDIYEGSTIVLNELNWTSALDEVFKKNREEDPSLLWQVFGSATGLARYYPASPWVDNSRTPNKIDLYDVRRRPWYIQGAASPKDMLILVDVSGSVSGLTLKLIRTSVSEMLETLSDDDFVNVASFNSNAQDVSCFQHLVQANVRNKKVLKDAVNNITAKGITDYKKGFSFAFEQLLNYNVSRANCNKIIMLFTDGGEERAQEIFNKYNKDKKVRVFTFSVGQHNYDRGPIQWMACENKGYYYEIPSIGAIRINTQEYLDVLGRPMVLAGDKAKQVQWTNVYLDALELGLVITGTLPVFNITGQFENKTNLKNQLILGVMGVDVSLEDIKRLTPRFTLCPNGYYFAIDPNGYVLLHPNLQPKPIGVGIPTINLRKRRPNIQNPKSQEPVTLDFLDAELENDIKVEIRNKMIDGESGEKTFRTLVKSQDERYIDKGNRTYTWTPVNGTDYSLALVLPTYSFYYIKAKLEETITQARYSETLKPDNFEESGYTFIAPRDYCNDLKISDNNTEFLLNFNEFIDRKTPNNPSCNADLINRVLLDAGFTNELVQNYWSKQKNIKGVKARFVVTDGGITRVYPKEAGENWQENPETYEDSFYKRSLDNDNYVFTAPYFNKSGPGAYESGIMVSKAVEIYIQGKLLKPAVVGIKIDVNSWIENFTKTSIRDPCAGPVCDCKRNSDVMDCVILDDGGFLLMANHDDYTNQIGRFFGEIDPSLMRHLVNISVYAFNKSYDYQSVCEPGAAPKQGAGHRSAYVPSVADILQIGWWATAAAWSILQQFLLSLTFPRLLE
T2 sequence (P54289 957-1103 partner): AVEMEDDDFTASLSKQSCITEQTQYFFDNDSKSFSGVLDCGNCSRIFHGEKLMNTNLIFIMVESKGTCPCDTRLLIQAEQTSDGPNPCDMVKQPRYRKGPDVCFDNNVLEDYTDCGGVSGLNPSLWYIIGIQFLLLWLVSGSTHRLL
Put plainly: automated patch clamp of I Ca,L in Cav1.2-CHO cells; confirmed by conventional patch clamp with Ba2+ as charge carrier. It is filed as cell-based.

Structures are written as SMILES.

T1 sequence (Q12809 whole entry): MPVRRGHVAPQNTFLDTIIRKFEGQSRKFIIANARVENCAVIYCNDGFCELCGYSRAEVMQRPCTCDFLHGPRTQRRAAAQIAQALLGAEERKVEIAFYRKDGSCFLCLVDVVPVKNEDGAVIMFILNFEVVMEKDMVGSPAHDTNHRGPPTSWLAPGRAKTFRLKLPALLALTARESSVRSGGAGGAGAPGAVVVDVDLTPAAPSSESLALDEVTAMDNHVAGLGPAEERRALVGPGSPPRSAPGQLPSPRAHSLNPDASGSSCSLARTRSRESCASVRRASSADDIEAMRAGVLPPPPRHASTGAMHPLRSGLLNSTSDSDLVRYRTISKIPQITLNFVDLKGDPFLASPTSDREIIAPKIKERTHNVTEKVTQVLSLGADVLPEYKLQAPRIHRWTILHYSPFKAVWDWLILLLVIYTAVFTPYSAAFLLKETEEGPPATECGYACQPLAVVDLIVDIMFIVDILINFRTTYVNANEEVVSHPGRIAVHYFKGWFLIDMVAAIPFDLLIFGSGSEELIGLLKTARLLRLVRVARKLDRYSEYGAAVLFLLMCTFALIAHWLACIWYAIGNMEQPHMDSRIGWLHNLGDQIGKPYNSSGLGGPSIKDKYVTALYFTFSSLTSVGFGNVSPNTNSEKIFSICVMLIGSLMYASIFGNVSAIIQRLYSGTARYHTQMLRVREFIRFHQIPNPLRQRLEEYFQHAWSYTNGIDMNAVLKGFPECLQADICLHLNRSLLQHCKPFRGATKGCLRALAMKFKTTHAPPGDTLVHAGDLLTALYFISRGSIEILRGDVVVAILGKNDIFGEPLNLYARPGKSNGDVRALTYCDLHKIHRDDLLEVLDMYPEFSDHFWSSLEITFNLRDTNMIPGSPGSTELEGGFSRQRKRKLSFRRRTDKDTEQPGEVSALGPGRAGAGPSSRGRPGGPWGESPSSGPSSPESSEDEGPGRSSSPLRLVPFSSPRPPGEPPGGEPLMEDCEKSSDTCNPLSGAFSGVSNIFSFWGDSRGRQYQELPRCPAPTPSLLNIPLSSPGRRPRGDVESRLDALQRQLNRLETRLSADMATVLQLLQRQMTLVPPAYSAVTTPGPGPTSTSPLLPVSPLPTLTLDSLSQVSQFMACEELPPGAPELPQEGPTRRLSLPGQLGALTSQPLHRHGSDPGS

In general, IC50 refers to the point on the concentration scale where inhibition reaches its midpoint. For `C[C@]12CC[C@H](O)C[C@H]1CC[C@@H]1[C@@H]2CC[C@]2(C)[C@@H](c3ccc(=O)oc3)CC[C@]12O` [BF, bufalin], the values for the IC50 in test [1] and in test [2] were > 100 µM and 12.5 µM, respectively.

The values above are taken from article PMC5446409 (Scientific Reports, 2017).
